Measurements as given in patent US6287859A, “Identification, functional expression and chromosal localization of a sustained human proton-gated cation channel” (priority 1999, dated 2001).
Entries after “also recorded” stand apart in the source; their conditions may differ. Read-outs that look alike come from different tables or passages of the source.

What was measured:
[1] = molecular target: T1, hASIC3 (Homo sapiens, UniProt Q9UHC3); assay: H+-gated hASIC3 whole-cell current in transfected COS cells; format: cell-based
T1 construct: expressed in transfected cells; host or cells: COS cells (DEAE-Dextran, hASIC3-PCI with CD8 marker)
T1 sequence (Q9UHC3 1-531): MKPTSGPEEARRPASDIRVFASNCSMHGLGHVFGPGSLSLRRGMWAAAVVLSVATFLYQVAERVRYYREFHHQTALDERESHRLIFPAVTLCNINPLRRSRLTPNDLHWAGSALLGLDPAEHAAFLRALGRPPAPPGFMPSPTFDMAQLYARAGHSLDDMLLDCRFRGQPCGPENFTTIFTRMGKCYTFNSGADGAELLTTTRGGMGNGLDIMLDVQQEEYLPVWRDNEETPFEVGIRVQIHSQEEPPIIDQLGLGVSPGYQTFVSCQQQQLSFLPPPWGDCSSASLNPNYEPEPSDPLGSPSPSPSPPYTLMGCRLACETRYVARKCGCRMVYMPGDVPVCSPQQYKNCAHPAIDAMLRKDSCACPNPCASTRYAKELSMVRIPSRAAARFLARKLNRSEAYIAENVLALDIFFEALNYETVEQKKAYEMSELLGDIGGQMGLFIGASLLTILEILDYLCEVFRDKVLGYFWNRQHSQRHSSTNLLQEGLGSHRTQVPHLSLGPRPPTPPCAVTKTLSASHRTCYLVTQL
Excerpt: (§1) The vector containing the hASIC3 coding sequence was linearized with NotI and blunt ended with T4 DNA polymerase. After inactivation of the T4 DNA polymerase, the hASIC3 coding sequence was excised with EcoRI and subsequently subcloned into the EcoRI/SalI (blunt) digested PCI expression vector (Promega). COS cells, at a density of 20.000 cells per 35 mm diameter petri dish, were transfected with a mix of CD8 and hASIC3-PCI (1:5) using the DEAE-Dextran method. Cells were used for electrophysiological measurements one to three days after transfection. Successfully transfected cells were recognised by their ability to fix CD8-antibody-coated beads. Ion currents were recorded using either the whole cell or outside-out patch-clamp technique. The pipette solution contained (in mM): KCl 120, NaCl 30, MgCl2 2, EGTA 5, HEPES 10 (pH 7.2). The bath solution contained in mM: NaCl 140, KCl 5, MgCl2 2, CaCl2 2, HEPES 10 (pH 7.3). Changes in extracellular pH were induced by opening one out of six outlets of a microperfusion system in front of the cell or patch. Test solutions having a pH of less then 6 were buffered with 10 mM MES rather than HEPES but were identical to the control solution in all other respects. Experiments were carried out at room temperature (20-24° C.).

[2] = molecular target: T1, hASIC3; assay: hASIC3 single channel currents in outside-out patches from transfected COS cells; format: cell-based; conditions: 100 μM, outside-out patch, -60 mV, resting pH 7.3
Excerpt: as §1

[3] = molecular target: T2, rASIC1A channel (Rattus norvegicus, UniProt P55926); assay: Proton-activated rASIC1A current in Xenopus oocytes (voltage clamp and outside-out patch); format: cell-based
T2 construct: cDNA isolated from rat brain codes for a protein of 526 amino acids; expressed in transfected cells; host or cells: Xenopus laevis oocytes injected with cRNA
T2 sequence (P55926 1-526): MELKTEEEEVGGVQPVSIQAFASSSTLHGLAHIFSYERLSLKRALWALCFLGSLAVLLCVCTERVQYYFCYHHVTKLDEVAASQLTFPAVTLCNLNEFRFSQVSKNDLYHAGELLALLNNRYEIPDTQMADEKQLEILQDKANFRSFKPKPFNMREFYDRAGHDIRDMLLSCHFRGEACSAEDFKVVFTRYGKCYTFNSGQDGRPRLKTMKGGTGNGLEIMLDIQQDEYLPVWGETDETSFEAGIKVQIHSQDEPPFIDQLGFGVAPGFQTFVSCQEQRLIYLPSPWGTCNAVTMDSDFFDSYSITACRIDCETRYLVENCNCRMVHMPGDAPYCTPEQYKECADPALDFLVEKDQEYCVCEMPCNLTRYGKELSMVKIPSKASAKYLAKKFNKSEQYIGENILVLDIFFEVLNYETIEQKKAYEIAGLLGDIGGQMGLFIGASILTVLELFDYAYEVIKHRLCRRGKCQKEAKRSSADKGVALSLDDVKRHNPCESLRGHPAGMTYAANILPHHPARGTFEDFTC
Experimental: 0.25 ng of cRNA was injected into the Xenopus laevis oocytes and the recording microelectrodes for the imposed voltage and for the patch-clamp were installed two days after the injection. The bath solutions for the outside-out patch recordings and the pipettes for the outside-out patch and total cells recordings contained: 140 mM KCl (or NMDG), 2 mM MgCl2, 5 mM EGTA, 10 mM Hepes, pH 7.4 (with KOH). The pipettes for the outside-out patch recordings and the bath solutions for the outside-out patch and total cells recordings contained: 140 mM NaCl (or LiCl or NMDGCl), 2 mM MgCl2, 1.8 mM CaCl2, 10 mM Hepes, pH 7.4 (adjusted with HCl, NaOH, LiOH or TMAOH). The intracellular acidification of the oocytes was implemented by injecting […] of the internal solution at pH 2 or by perfusion and withdrawal of a bath medium containing 20 mM NH4 Cl. […] The data were sampled at 2 kHz and filtered at 500 Hz for the analysis (Logiciel Biopatch).

[4] = tested on: proton-activated cationic channels of sensory neurons; conditions: refs [18], [19]; cited from earlier work
[5] = tested on: perception of acid taste; conditions: ref [2]; cited from earlier work
[6] = H+-activated current, pH change from pH 7.4 to pH 6, -70 mV, oocytes, outside-out patch at 0 mV, read-out: Kd, reversible block of the rASIC1A channel

| SMILES | Effect on the sustained hASIC3 current ([1]; COS cells) | Effect on the inflowing current activated by H+ in sensory neurons [4] | Kd [3, 6] [µM] | further results |
| --- | --- | --- | --- | --- |
| N=C(N)NC(=O)c1nc(Cl)c(N)nc1N [amiloride] | virtually not affected | inhibited |  | IC50 ([1]; cells clamped at -60 mV, currents as fraction of mean current in absence of drug, read-out: K0.5, dose-response curve for inhibition of hASIC3 current): 15.9 µM; Kd ([1]; transient current, COS cells, read-out: KD, inhibition of the transient hASIC3 current): 15.9 µM; Effect on spontaneous hASIC3 channel activity at pH 7.3 [2]: inhibited; also recorded: disappears; Kd [3]: 10 µM; Effect on perception of acid taste [5]: inhibits the perception of acid taste |
| NC(=NCc1ccccc1)NC(=O)c1nc(Cl)c(N)nc1N [benzamil] |  |  | 10 |  |
| CCN(c1nc(N)c(C(=O)NC(=N)N)nc1Cl)C(C)C [EIPA, ethylisopropylamiloride] |  | inhibited | 10 |  |
| Nc1nc(N)c2nc(-c3ccccc3)c(N)nc2n1 [triamterene] | virtually not affected |  |  | Effect on the transient hASIC3 current ([1]; transient current, COS cells): inhibited |
